Four compounds from patent publication EP0400799A1, “Phenylpyrimidone derivatives” (SMITH KLINE & FRENCH LABORATORIES LIMITED, priority 1989, dated 1990) can be followed below.

The subject of assay [1] is histamine bronchoconstriction. As to the kind of experiment: Bronchodilatation in vivo, histamine-induced bronchoconstriction (airway resistance, Konzett-Rossler). More on the design: species or system guinea-pigs of the Dunkin Hartley strain. As to conditions: Cavia porcellus, iv; dose reducing histamine bronchoconstriction by 50%; anaesthetised male guinea-pigs; i.v. bolus one minute before histamine challenge; read-out: BD₅₀. The method, then: A. Male guinea-pigs of the Dunkin Hartley strain (500 - 600 g) were anaesthetised with Sagatal (pentobarbital sodium) (60 mg/kg i.p.). Airway resistance was measured using a modification of the classical Konzett-Rossler technique (J. Pharm. Methods, 13, 309-315, 1985). A dose of histamine which gave approximately 150% increase in airway resistance was selected for i.v. administration. Bolus doses of the compound under test were administered (i.v.) one minute before the histamine challenge and the subsequent peak inhibition of bronchoconstriction recorded.
The dose of compound required to reduce the histamine bronchoconstriction by 50% is given as the BD₅₀.

The next assay relates to hindquarter blood flow. As to the kind of experiment: Vasodilatation in vivo, perfused hindquarter blood flow. As to conditions: Rattus norvegicus, iv; dose producing a 50% increase in hindquarter blood flow; anaesthetised male Wistar rats; bolus i.v.; read-out: EDHQ₅₀. How it is done:
Male Wistar rats (300 g) were anaesthetised with a sodium 5-ethyl-5-(1-methylpropyl)-2-thiobarbiturate/sodium pentobarbitone mixture i.p. (62.5 and 22.5 mg/kg respectively). The trachea was cannulated and the rats breathed spontaneously air enriched with O₂ (5 ml/min). Blood pressure was recorded from a carotid artery and a jugular vein was cannulated for the administration of compounds. The temperature of the animal was maintained at 37°C by the use of an electric blanket. […] The perfusion circuit was primed with 5% bovine serum albumin dissolved in 0.9% sodium chloride solution, pH adjusted to 7.4. Initially the pump rate was set between 10 and 15 ml/min to match the hind quarter perfusion pressure to that of the systemic circulation. Once set, the pressure remained unaltered for the rest of the experiment. A change in the speed of the pump (equivalent to hindquarter blood flow) was used to assess the changes in hindquarter vascular resistance.
All compounds were administered as a bolus i.v. and from the dose response curves the dose required to produce a 50% increase in hindquarter blood flow (EDHQ₅₀) was determined in µmoles/kg.

For assay [2], the system named is U46619-induced bronchoconstriction. As to the kind of experiment: Bronchodilatation in vivo, U46619-induced bronchoconstriction (airway resistance, Konzett-Rossler). More on the design: species or system guinea-pigs of the Dunkin Hartley strain. As to conditions: Cavia porcellus, iv; dose reducing U46619-induced bronchoconstriction by 50%; anaesthetised male guinea-pigs; i.v. bolus; U46619 infused i.v. 2.5 nmol/min; read-out: BD₅₀. The method, then:
B. Male guinea-pigs of the Dunkin Hartley strain (500 - 600g) were anaesthetised with Sagatal (pentobarbital sodium) (60 mg/kg). Airway resistance was measured using a modification of the classical Konzett-Rossler technique (J. Pharm. Methods, 13, 309-315, 1985). U46619 (9,11-methanoepoxy-PGH₂) was infused i.v. at a rate of 2.5 nmol/min, this produced a steady state of bronchoconstriction (approximately 120% increase from basal airway resistance). The compound under test was administered by i.v. bolus injection, and the subsequent peak inhibition of bronchoconstriction recorded.
The dose of compound required to reduce the U46619-induced bronchoconstriction by 50% is given as the BD₅₀.

The structures appear in SMILES notation.

For `CCCOc1ccccc1-c1ncc(N)c(=O)[nH]1` [Ex 3, 5-Amino-2-(2-propoxyphenyl)pyrimidin-4(3H)-one], the values for the ED50 (in assay [1]; with hindquarter blood flow) were 8.34 µmol/kg and 19 µmol/kg, respectively.
`CCCOc1ccccc1-c1ncc(NC(C)=O)c(=O)[nH]1` [Ex 4, 5-Acetamido-2-(2-propoxyphenyl)pyrimidin-4(3H)-one]: the ED50 in assay [1] stood at 8.4 µmol/kg; in assay [2] it was 3.8 µmol/kg; in the assay with hindquarter blood flow it was 15.8 µmol/kg.
On to `CCCOc1ccccc1-c1nccc(=O)[nH]1` [Ex 5, 2-(2-Propoxyphenyl)pyrimidin-4(3H)-one], for which the results for the ED50 (in assay [2]; in the assay on hindquarter blood flow) were 3.2 µmol/kg and 22 µmol/kg, respectively.
On to `CCCOc1ccccc1-c1ncc(C(N)=O)c(=O)[nH]1` [y, 1,6-dihydro-6-oxo-2-(2-propoxyphenyl)pyrimidine-5-carboxamide, reference compound], for which the ED50 came out at 5.6 µmol/kg in assay [1] and 23 µmol/kg in the assay on hindquarter blood flow.
